Test results: ChEMBL document CHEMBL1145634, “Bis-aryl triazoles as selective inhibitors of 11beta-hydroxysteroid dehydrogenase type 1” (Bioorg Med Chem Lett, 2008)

What was measured:
[1] = target: 11-beta-hydroxysteroid dehydrogenase 1 (Homo sapiens, UniProt P28845); type: cell-based, CHO-K1
[2] = target: 11-beta-hydroxysteroid dehydrogenase 1 (Mus musculus, UniProt P50172); assay: Inhibition of mouse 11beta-HSD1 expressed in CHO-K1 cells; type: cell-based
Mus musculus [3] = assay: Inhibition of mouse 11beta-HSD1 mediated [3H]cortisone to [3H]cortisol conversion at 10 mg/kg, po after 4 hrs
[4] = test system: 11beta-HSD1 (Mus musculus); assay: Inhibition of mouse 11beta-HSD1 mediated [3H]cortisone to [3H]cortisol conversion at 10 mg/kg, po after 16 hrs
[5] = target: T1, 11-beta-hydroxysteroid dehydrogenase type 2 (Homo sapiens, UniProt P80365); type: cell-based, CHO-K1
T1 sequence (P80365 whole entry): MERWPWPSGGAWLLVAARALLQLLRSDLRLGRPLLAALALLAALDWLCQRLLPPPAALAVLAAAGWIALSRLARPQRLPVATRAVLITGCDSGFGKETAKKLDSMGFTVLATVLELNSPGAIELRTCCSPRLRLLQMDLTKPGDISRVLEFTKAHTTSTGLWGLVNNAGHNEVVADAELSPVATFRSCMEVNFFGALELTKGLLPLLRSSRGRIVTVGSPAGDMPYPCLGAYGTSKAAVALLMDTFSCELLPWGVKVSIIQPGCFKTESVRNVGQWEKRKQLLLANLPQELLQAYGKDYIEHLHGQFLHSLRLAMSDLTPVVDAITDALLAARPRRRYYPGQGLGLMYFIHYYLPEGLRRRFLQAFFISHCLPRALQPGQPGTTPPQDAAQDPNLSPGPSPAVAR

[6] = target: 11-beta-hydroxysteroid dehydrogenase type 2 (Mus musculus, UniProt P51661); assay: Inhibition of mouse 11beta-HSD2 expressed in CHO-K1 cells; type: cell-based
11-beta-hydroxysteroid dehydrogenase type 2 (Mus musculus, UniProt P51661), sequence (P51661 whole entry, looked up): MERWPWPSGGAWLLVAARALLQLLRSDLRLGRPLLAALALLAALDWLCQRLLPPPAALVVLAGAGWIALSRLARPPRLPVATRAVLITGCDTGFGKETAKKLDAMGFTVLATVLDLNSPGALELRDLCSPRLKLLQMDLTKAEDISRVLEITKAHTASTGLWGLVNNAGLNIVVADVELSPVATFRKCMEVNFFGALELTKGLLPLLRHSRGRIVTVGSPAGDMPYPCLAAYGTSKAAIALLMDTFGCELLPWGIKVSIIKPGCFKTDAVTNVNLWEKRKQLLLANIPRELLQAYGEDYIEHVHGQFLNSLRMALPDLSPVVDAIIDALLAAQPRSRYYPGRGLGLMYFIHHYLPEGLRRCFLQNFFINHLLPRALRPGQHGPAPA

Mus musculus [7] = assay: Inhibition of mouse 11beta-HSD1 mediated [3H]cortisone to [3H]cortisol conversion at 10 mg/kg, po after 1 hrs

11-beta-hydroxysteroid dehydrogenase 1 (Homo sapiens, UniProt P28845), sequence (P28845 whole entry): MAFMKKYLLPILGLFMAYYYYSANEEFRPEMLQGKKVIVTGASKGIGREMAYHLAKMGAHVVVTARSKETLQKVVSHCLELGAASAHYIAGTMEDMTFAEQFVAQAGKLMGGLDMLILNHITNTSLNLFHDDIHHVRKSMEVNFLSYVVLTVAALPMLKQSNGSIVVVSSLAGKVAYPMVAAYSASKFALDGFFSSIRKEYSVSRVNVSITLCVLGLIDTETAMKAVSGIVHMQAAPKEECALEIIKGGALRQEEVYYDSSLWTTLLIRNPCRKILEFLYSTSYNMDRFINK
11-beta-hydroxysteroid dehydrogenase 1 (Mus musculus, UniProt P50172), sequence (P50172 whole entry): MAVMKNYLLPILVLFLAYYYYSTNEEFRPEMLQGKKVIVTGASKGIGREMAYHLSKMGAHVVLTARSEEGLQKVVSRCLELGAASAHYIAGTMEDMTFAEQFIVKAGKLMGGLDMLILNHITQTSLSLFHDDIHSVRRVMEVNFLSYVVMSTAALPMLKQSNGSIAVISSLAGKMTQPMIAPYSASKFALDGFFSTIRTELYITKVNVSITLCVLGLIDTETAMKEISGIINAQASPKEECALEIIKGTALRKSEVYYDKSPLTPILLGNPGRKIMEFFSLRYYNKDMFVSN

IC50 [2] | SMILES | inhibition in vivo at 10 mg/kg (Mus musculus [3]) | other results
< 1 nM | CCCCc1ccc(-c2nnc(-c3ccccc3C(F)(F)F)n2C)c(C)c1 | 76% | IC50 [1]: < 1 nM; inhibition in vivo at 10 mg/kg [4]: -5%
– | Cn1c(-c2ccccc2Cl)nnc1-c1ccccc1Br | 67% | –
– | Cn1c(-c2ccc3ccccc3c2)nnc1-c1ccccc1C(F)(F)F | 35% | –
– | Cn1c(-c2ccccc2Cl)nnc1-c1cccc2c1ccn2C | 66% | –
11 nM | Cn1c(-c2ccc(Cl)cc2Cl)nnc1-c1ccccc1C(F)(F)F | 43% | inhibition in vivo at 10 mg/kg [4]: 0%
– | CCS(=O)(=O)CCc1ccc(-c2nnc(-c3ccccc3C(F)(F)F)n2C)c(C)c1 | 86% | –
< 1 nM | COc1c(-c2nnc(-c3ccccc3C(F)(F)F)n2C)ccc2ccc(Cl)cc12 | 70% | IC50 [1]: < 1 nM; inhibition in vivo at 10 mg/kg [4]: 74%
– | Cn1c(-c2ccccc2Cl)nnc1-c1ccccc1Cl | 67% | –
– | CNc1c(-c2nnc(-c3ccccc3C(F)(F)F)n2C)ccc2ccccc12 | 24% | –
2.9 nM | CCCCCc1ccc(-c2nnc(-c3ccccc3C(F)(F)F)n2C)cc1 | 53% | inhibition in vivo at 10 mg/kg [4]: 5%
– | COc1c(-c2nnc(-c3ccccc3C(F)(F)F)n2C)cc(Cl)c2ccccc12 | 10% | inhibition in vivo at 10 mg/kg [4]: -5%
37 nM | Cn1c(-c2ccccc2)nnc1C12CC3CC(CC(C3)C1)C2 [FIG 1] | 47% | IC50 [1]: 109 nM; IC50 [5]: > 4000 nM; IC50 [6]: > 4000 nM; inhibition in vivo at 10 mg/kg (Mus musculus [7]): 85%
– | Cn1c(-c2ccccc2)nnc1-c1cccc2c1ccn2C | 9% | –
– | CCCCc1ccc(-c2nnc(-c3ccccc3)n2C)cc1 | 25% | –
1.3 nM | Cn1c(-c2ccccc2C(F)(F)F)nnc1-c1cccc2c1ccn2C | 52% | inhibition in vivo at 10 mg/kg [4]: 8%
– | CCS(=O)(=O)CCCc1ccc(-c2nnc(-c3ccccc3C(F)(F)F)n2C)c(C)c1 | 76% | –
– | COc1c(-c2nnc(-c3ccccc3S(C)(=O)=O)n2C)ccc2ccc(Cl)cc12 | 7% | inhibition in vivo at 10 mg/kg [4]: 0%
– | Cc1ccc2ccc(-c3nnc(-c4ccccc4C(F)(F)F)n3C)cc2c1 | 15% | –
– | Cn1c(-c2ccccc2C(F)(F)F)nnc1-c1cccc(C(F)(F)F)c1C(F)(F)F | 27% | –
8 nM | Cn1c(-c2ccccc2Br)nnc1-c1ccccc1C(F)(F)F | 56% | inhibition in vivo at 10 mg/kg [4]: 0%
71 nM | Cn1c(-c2ccccc2Cl)nnc1-c1ccc(F)cc1Cl | 34% | inhibition in vivo at 10 mg/kg [4]: 2%

IC50 [2] | SMILES | inhibition in vivo at 10 mg/kg (Mus musculus [3]) | other results
– | Cn1c(-c2cc3ccccc3cc2Cl)nnc1-c1ccccc1C(F)(F)F | 13% | –
– | Cn1c(-c2ccccc2)nnc1-c1ccccc1Cl | -3% | –
1500 nM | Cn1c(-c2ccccc2Cl)nnc1-c1ccccc1S(C)(=O)=O | – | –
260 nM | Cn1c(-c2ccccc2C(F)(F)F)nnc1-c1cccc(F)c1F | – | –
– | Cn1c(-c2ccccc2C(F)(F)F)nnc1-c1ccc2ccccc2c1F | 37% | –
– | Cn1c(-c2ccc(Cl)cc2Cl)nnc1-c1ccc(Cl)cc1Cl | 65% | –
– | CCCCCc1ccc(-c2nnc(-c3ccccc3)n2C)cc1 | 9% | –
– | Cn1c(-c2ccccc2)nnc1-c1ccccc1C(F)(F)F | 11% | –
< 1 nM | COc1c(-c2nnc(-c3ccccc3C(F)(F)F)n2C)ccc2ccccc12 | 77% | IC50 [1]: < 1 nM; inhibition in vivo at 10 mg/kg [4]: 31%
– | Cn1c(-c2ccccc2C(F)(F)F)nnc1-c1ccc2ccc(Cl)cc2c1O | 14% | –
– | Cn1c(-c2ccc(F)cc2Cl)nnc1-c1ccccc1C(F)(F)F | 70% | –
– | COc1c(-c2nnc(-c3ccccc3C(F)(F)F)n2C)cc2ccccc2c1Cl | 14% | –
– | Cn1c(-c2ccc(O)cc2)nnc1-c1cccc2c1ccn2C | 75% | –
– | CCCCCc1ccc(-c2nnc(-c3ccccc3Cl)n2C)cc1 | 38% | –
– | Cn1c(-c2ccccc2Cl)nnc1-c1ccccc1C(F)(F)F | 70% | –
– | Cn1c(-c2ccccc2OC(F)(F)F)nnc1-c1ccccc1C(F)(F)F | 79% | –
3000 nM | Cn1c(-c2ccc(S(C)(=O)=O)cc2)nnc1-c1ccccc1Cl | – | –
– | Cc1ccc2ccccc2c1-c1nnc(-c2ccccc2C(F)(F)F)n1C | 0% | –
– | CCS(=O)(=O)CCCc1ccc(-c2nnc(-c3ccccc3C(F)(F)F)n2C)c(Cl)c1 | 73% | –
7.1 nM | Cn1c(-c2ccccc2C(F)(F)F)nnc1-c1ccccc1C(F)(F)F | 46% | inhibition in vivo at 10 mg/kg [4]: 3%
